This note sets out measurements from patent US20050129680A1, “Antimicrobial activity of antibodies” (priority 2001, published 2005).

Values joined by “and” are separate entries in the source; they are usually repeats but may differ in a detail not shown here. Equal entries are not always repeated.

One data set concerns horse poly-IgG. Particulars: read-out: IC50 of H2O2 on the photo-production of H2O2 by horse poly-IgG; horse IgG 6.7 μM, H2O2 0-450 μM, near-UV. As for the experimental part:
Such a graph permits determination of the IC50 of H2O2 on the photo-production of H2O2 by horse poly-IgG. A solution of horse IgG (6.7 μM) was incubated with varying concentrations of H2O2 (0-450 μM) and the initial rate of H2O2 formation measured as described in FIG. 8A.

Data set [1] is described as follows: Decomposition of O3 under aqueous conditions. The class given is physicochemical. Particulars: PBS pH 7.4, 22° C. As to the method:
The rate of decomposition of O3 under the aqueous conditions employed was measured by the following method. Ozone, produced by a passage of O2 through a Polymetrics ozonizer, was bubbled for 2 min through a phosphate buffered saline (PBS, pH 7.4) solution in a quartz cuvette (1 cm^2) at room temperature. The time-dependent change in optical density was then measured at 260 nm (ε=2,700 M^−[…]) for at least 5 half lives in a Hitachi u.v./vis spectrophotometer equipped with a thermostatted rack at 22° C. See Takeuchi et al., Anal. Chim. Acta. 230, 183 (1990). […] The sensitivity of the assay was limited by spectrophotometer accuracy to ±0.1% (˜1 μM) of the OD at t=0.

In another data set the test system is E. coli. Description: Bactericidal assay (CFU recovery), strain not singled out. The data set is classed as cell-based. Particulars: 40 μM, white light 2.7 mW cm^−2, 1 h, PBS, 4±1° C. As for the experimental part: In a typical experiment, a culture of E. coli (in log phase growth, OD600=0.2-0.3) was repeatedly pelleted (3×3,500 rpm) and resuspended in PBS (pH 7.4). The PBS suspended cells were then added to glass vials and cooled to 4° C. […] Viability was determined by recovery of colony forming units (CFUs) on agar plates. Each experiment was performed at least in duplicate.
In a typical experiment, a culture of E. coli (in log phase growth, OD600=0.2-0.3) was repeatedly washed in PBS by pelleting (3×3,500 rpm) the cells and resuspending them in PBS (pH 7.4). The PBS suspended cells were then added to glass vials and cooled to 4° C. […] Viability was determined by recovery of colony forming units (CFUs) on agar plates. Each experiment was performed at least in duplicate.

Data set [2] can be described thus: Antibody/protein UV irradiation with Amplex Red quantitative assay for hydrogen peroxide. The data set is classed as biochemical. The note with it: for reduction of ^1O2 (panel of other proteins): UV irradiation, PBS. As for the experimental part:
Aliquots (10 μL) were removed at timed intervals throughout the assay. H2O2 concentration was determined by the amplex red method. Each data point is reported as the mean±SEM of at least duplicate measurements: ? polyclonal (poly) immunoglobulin (Ig) G, human; O poly-IgG, horse; ? poly-IgG, sheep; ∇ monoclonal (m) IgG (WD1-6G6), murine; ? poly-IgM, human; ? mIgG (92H2), murine; ¦ β-galactosidase (β-gal); ? chick ovalbumin (OVA); ? a-lactalbumin (a-lact); ? bovine serum albumin (BSA).
Antibody/Protein Irradiation.
Quantitative Assay for Hydrogen Peroxide. An aliquot (20 μl) from the protein solution was removed and added into a well of a 96-well microtiter plate (Costar) containing reaction buffer (80 μl). Working solution (100 μl/400 μM Amplex Red reagent 1/2 units/ml horseradish peroxidase) was then added, and the plate was incubated in the dark for 30 min. The fluorescence of the well components was then measured using a CytoFluor Multiwell Plate Reader (Series 4000, PerSeptive Biosystems, Framingham, Mass.; Ex/Em: 530/580 nm). The hydrogen peroxide concentration was determined using a standard curve. All experiments were run in duplicate, and the rate is quoted as the mean of at least two measurements.
A suspension of crystals of the Fab fragment of 1D4 (2 μl) was diluted with PBS (198 μl, pH 7.4) and vortexed gently. Following centrifugation, the supernatant was removed, and the washing procedure was repeated twice further. The residual crystal suspension was then diluted into PBS, pH 7.4 (100 μl), and added into a well of a quartz ELISA plate. Following UV irradiation for 30 min, Amplex Red working solution (100 μl) was added, and the mixture was viewed on a fluorescence microscope.
Denaturation. […] The resultant solution was transferred to a glass, screw-cap vial and irradiated with UV light for 30 min. The concentration of H2O2 was determined after 30 min.

Another data set deals with E. coli XL1-blue. The data set can be described thus: Bactericidal assay (CFU recovery). Particulars: catalase 13 mU/mL. The data set is classed as cell-based. As for the experimental part: In a typical experiment, a culture of E. coli (in log phase growth, OD600=0.2-0.3) was repeatedly pelleted (3×3,500 rpm) and resuspended in PBS (pH 7.4). The PBS suspended cells were then added to glass vials and cooled to 4° C. Hematoporphyrin IX (40 μM) and antibody (20 μM) were added and the vials were either placed on a light box (visible light, 2.8 mW cm^−2) or in the dark at 4° C. and incubated for 1 h. Viability was determined by recovery of colony forming units (CFUs) on agar plates. Each experiment was performed at least in duplicate.
In a typical experiment, a culture of E. coli (in log phase growth, OD600=0.2-0.3) was repeatedly washed in PBS by pelleting (3×3,500 rpm) the cells and resuspending them in PBS (pH 7.4). The PBS suspended cells were then added to glass vials and cooled to 4° C. Hematoporphyrin IX (40 μM) and antibody (20 μM) were added and the vials were either placed on a light box (visible light, 2.8 mW cm^−2) or in the dark at 4° C. and incubated for 1 h. Viability was determined by recovery of colony forming units (CFUs) on agar plates. Each experiment was performed at least in duplicate.

Turning to `OO` [Clone H2O2, hydrogen peroxide], the 50% inhibitory concentration (IC50) (commonly the concentration that inhibits the measured activity by half) in the data set on horse poly-IgG is ~225 µM and 225 µM. For `O=[O+][O-]` [Clone O3, ozone], the “half-life (t1/2) under aqueous conditions” value in data set [1] was 1.1 min. As to `CC1=C(CCC(=O)O)c2cc3[nH]c(cc4nc(cc5[nH]c(cc1n2)c(C)c5C(C)O)C(C)=C4C(C)O)c(C)c3CCC(=O)O` (centres unmarked) [hematoporphyrin IX], in the data set on E. coli, the “bactericidal activity of sensitizer alone” value is listed as “negligible bactericidal activity”.

Take `N[C@@H](Cc1c[nH]c2ccccc12)C(=O)O` [tryptophan]: in data set [2] (near-UV irradiation, 20 μM), the “H2O2 produced during near-UV photo-oxidation” value was “ca. 0.5 mole equivalents”. catalase: the “protection against the bactericidal activity of non-specific antibodies” value in the data set on E. coli XL1-blue is “complete protection”. For the molecule β-galactosidase, the “H2O2 generated during near-UV irradiation” value in data set [2] (near-UV irradiation, 6.7 μM) turned out to be 5.9 mol eq.

B1: chick ovalbumin: chick-egg ovalbumin (protein, UniProt P01012 2-386, looked up)
Ovalbumin: GSIGAASMEFCFDVFKELKVHHANENIFYCPIAIMSALAMVYLGAKDSTRTQINKVVRFDKLPGFGDSIEAQCGTSVNVHSSLRDILNQITKPNDVYSFSLASRLYAEERYPILPEYLQCVKELYRGGLEPINFQTAADQARELINSWVESQTNGIIRNVLQPSSVDSQTAMVLVNAIVFKGLWEKAFKDEDTQAMPFRVTEQESKPVQMMYQIGLFRVASMASEKMKILELPFASGTMSMLVLLPDEVSGLEQLESIINFEKLTEWTSSNVMEERKIKVYLPRMKMEEKYNLTSVLMAMGITDVFSSSANLSGISSAESLKISQAVHAAHAEINEAGREVVGSAEAGVDAASVSEEFRADHPFLFCIKHIATNAVLFFGRCVSP
In the case of B1, in data set [2], the “reduction of ^1O2 (panel of other proteins)” value is on record as “one of the most efficient proteins”.

B2: RNase A: ribonuclease, no Trp residues, several disulfide bonds (protein, UniProt P61823 27-150, looked up)
Ribonuclease pancreatic: KETAAAKFERQHMDSSTSAASSSNYCNQMMKSRNLTKDRCKPVNTFVHESLADVQAVCSQKNVACKNGQTNCYQSYSTMSITDCRETGSSKYPNCAYKTTQANKHIIVACEGNPYVPVHFDASV
On to B2, for which, in data set [2], the “reduction of ^1O2 (panel of other proteins)” value is “do not reduce”.
